Results reported in patent US6903183B1, “Compositions and methods for regulation of steroidogenesis” (Texas Tech University Health Services Center, priority 1996, dated 2005).

Legend:
[1] = test system: StAR protein; assay: Immunoblot analysis of 30 kDa (StAR) protein in MA-10 cells; assay type: cell-based, mouse
Procedure: Immunoblot Analysis. Mitochondria were isolated from either MA-10 or COS 1 cells transfected with either pCMV or pCMV+30 kDa cDNA 48 hours post-transfection. For experiments in which progesterone production was measured (as described above), cells were solubilized directly in the well with 0.1% SDS, the cell homogenates were collected and combined from all 8 wells, and the protein was precipitated using trichloracetic acid. The protein was solubilized in sample buffer (25 mM Tris/Cl, pH 6.8, 1% SDS, 5% β-mercaptoethanol, 1 mM EDTA, 4% glycerol, and 0.01% bromophenol blue) and loaded onto a 12.5% SDS-PAGE minigel (Mini-Protein II System, Bio-Rad, Richmond, Calif.). […] The membrane was washed as before, and the specific signal was detected by chemiluminescence using the Renaissance kit from Du Pont-NEN.
In order to verify that the cDNA was being expressed in eukaryotic cells, COS 1 cells were used to transfect the pCMV+30 kDa cDNA since the pCMV plasmid can be replicated in these cells and approximately 80% of the cells are transfected with plasmid DNA based on the expression of reporter protein. Forty-eight hours post-transfection, mitochondria were isolated and the 30 kDa protein expression was determined by immunoblot analysis. […] In addition, a 36.5 kDa protein was detected in the COS 1 cells which would be consistent with the precursor protein. […]

[2] = test system: StAR mRNA; assay: Northern blot analysis of StAR mRNA in MA-10 cells; assay type: cell-based, mouse
Procedure: MA-10 cells were stimulated with Bt2cAMP and StAR mRNA levels were determined by Northern blot analysis. Within 1 hour of Bt2cAMP stimulation, two major transcripts of approximately 3400 nt and 1600 nt, and one minor transcript of 2700 nt, were detected. […] Subsequent to the marked mRNA induction, the greatest induction (10x) in StAR protein was detected after 4 hours of Bt2cAMP stimulation by immunoblot analysis. Comparatively lower levels of StAR could be detected after 1 hour of hormone stimulation with maximal levels accumulated within 8 hours.

[3] = test system: StAR protein; assay: Synthesis of StAR protein in MA-10 cells after CRH, dbcAMP or hCG; assay type: cell-based, mouse
[4] = test system: H295R cells; assay: Agonist-stimulated aldosterone production (steroidogenesis) in H295R cells; assay type: cell-based, human
Procedure: (§1) FIG. 4. Effect of KN93 on agonist-stimulated aldosterone production and StAR protein expression in H295R cells. […] The medium aldosterone content was determined by R.I.A. and normalized to the tissue culture well protein content. Data points represent the mean ±SE of values from six separate culture wells expressed as fold increase over basal. Significant inhibition relative to the control response is indicated at *p<0.01. StAR protein was examined using equivalent amounts of total cellular lysate (30 μg) by immunoblot analysis as described in the Methods. Results are representative of those obtained from three separate experiments.
The human adrenocortical carcinoma-derived cell line (H295R) was used. This cell line secretes multiple steroids, including aldosterone and cortisol. […]
Subcultured cells were maintained 24 hours in DME/F12 medium containing 0.2% calf serum, 0.01% BSA and antibiotics (low serum). […] The aldosterone and cortisol contents of medium recovered from each well were determined with aldosterone and cortisol standards prepared in low-serum medium by commercial aldosterone and cortisol radioimmunoassays (Diagnostic System Laboratories; Webster, Tex.). Results of aldosterone and cortisol assays were normalized to cellular protein per well, expressed as pmol per mg cell protein and transformed to percentage of the control response where indicated. […]

[5] = test system: StAR protein; assay: Immunoblot of StAR protein expression in H295R cells; assay type: cell-based, human
Procedure: as §1
For each treatment, cells were solubilized as described above and an equivalent amount of protein (30 μg) for each sample were separated by SDS-PAGE (12.5%) and then electrophoretically transferred to polyvinylidene difluoride membrane as previously described (Clark et al (1994) J. Biol. Chem., 269:2831-322, reference specifically incorporated herein by reference). Immunoblot analysis was as described (Id) using a rabbit sera containing the specific StAR antipeptide antibody (see ANTIBODIES infra) as the primary label and a donkey anti-rabbit IgG conjugated with horseradish peroxidase (Amersham, Arlington Heights, Ill.). The specific signal was detected by chemiluminescence assays using the Renaissance kit from DuPont NEN (Boston, Mass.) and the StAR specific bands were quantitated by BioImage Visage 2000 computer-assisted image analysis (BioImage, Ann Arbor, Mich.). Different exposure times were used to insure linearity.

[6] = target: protein complex purified from MA-10 cell mitochondrial membranes; assay: competition against 35S-labeled StAR signal peptide on liposomes carrying the complex, gel filtration
[7] = test system: Y-1 adrenal tumor cells; assay: Overexpression of DAX-1 in Y-1 adrenal tumor cells; assay type: cell-based, mouse
[8] = test system: mitochondria isolated from MA-10 mouse Leydig tumor cells; assay: In vitro reconstituted system: pregnenolone synthesis by isolated mitochondria; assay type: biochemical; conditions: protein added to isolated mitochondria
Source text: Rat heart mitochondria were used for the import assay with bovine StAR, indicating import of StAR is not dependent upon factors specific to mitochondria isolated from steroidogenic tissues. The ability of StAR to increase steroid production has also been confirmed in an in vitro reconstituted system.

In the case of CCCC(=O)Nc1ncnc2c1ncn2[C@@H]1O[C@@H]2COP(=O)(O)O[C@H]2[C@H]1OC(=O)CCC [Bt2cAMP, N^6, 2′-O-dibutyryladenosine-3′:5′-cyclic monophosphate], the “time to maximal accumulated StAR protein levels” value [1] is reported as at most 8 h, the StAR protein induction ([1]; after 4 hours of stimulation) is reported as 10 x and the “time to maximal StAR mRNA levels” value [2] is reported as 6 h. The “StAR mRNA induction” value ([2]; after 2 hours of stimulation) was 20 x, the “concentration of maximal response (StAR synthesis)” value [3] was 1 µM and the “synthesis of the StAR protein” value [3] was “dose-dependent increase”. The “time of maximal response following stimulation” value ([3]; CRH at 1 μM) was 6 h.

For COc1ccc(S(=O)(=O)N(CCO)c2ccccc2CN(C)CC=Cc2ccc(Cl)cc2)cc1 [KN93, 2-[N-(2-hydroxyethyl)-N-(4-methoxybenzenesulfonyl)]amino-N-(4-chlorocinnamyl)-N-methylbenzylamine], the aldosterone production ([4]; KN93 3 μM) was “potently inhibited”, the block of steroidogenesis ([4]; KN93 between 1 and 3 μM) was 60 to 80% and the “induction of StAR protein by Ang II, K+, or Bay K” value ([5]; KN93 between 1 and 3 μM) was “did not affect”. For the same molecule, the “agonist-induction of StAR protein expression” value ([5]; co-treatment with KN93 3 μM) was “not affected”.

MFLATFKLCAGSSYRHMRNMKGLRHQ [StAR signal peptide (unlabeled, commercially synthesized)] showed a reduction of total radioactivity in the liposome fraction [6] of 65%.

B1: DAX-1: transcription repressor, unusual member of the nuclear hormone receptor superfamily, overexpressed in Y-1 cells (protein, UniProt Q61066 1-472, looked up)
Nuclear receptor subfamily 0 …: MAGEDHPWQGSILYNLLMSAKQKHASQEEREVRLGAQCWGCACGAQPVLGGERLSGGQARSLLYRCCFCGENHPRQGGILYSMLTNARQPSVATQAPRARFGAPCWGCACGSAEPLVGREGLPAGQAPSLLYRCCFCGEEHPRQGSILYSLLTSAQQTHVSREAPEAHRRGEWWQLSYCTQSVGGPEGLQSTQAMAFLYRSYVCGEEQPQQISVASGTPVSADQTPATPQEQPRAPWWDASPGVQRLITLKDPQVVCEAASAGLLKTLRFVKYLPCFQILPLDQQLVLVRSCWAPLLMLELAQDHLHFEMMEIPETNTTQEMLTTRRQETEGPEPAEPQATEQPQMVSAEAGHLLPAAAVQAIKSFFFKCWSLNIDTKEYAYLKGTVLFNPDLPGLQCVKYIEGLQWRTQQILTEHIRMMQREYQIRSAELNSALFLLRFINSDVVTELFFRPIIGAVSMDDMMLEMLCAKL
In the case of B1, the “StAR mRNA and protein synthesis” value [7] is reported as “inhibition” and the steroid synthesis [7] is reported as “complete inhibition”.

B2: adrenodoxin: another mitochondrial imported protein (protein, UniProt P10109 61-184, looked up)
Adrenodoxin, mitochondrial: SSSEDKITVHFINRDGETLTTKGKVGDSLLDVVVENNLDIDGFGACEGTLACSTCHLIFEDHIYEKLDAITDEENDMLDLAYGLTDRSRLGCQICLTKSMDNMTVRVPETVADARQSIDVGKTS
For B2, the pregnenolone synthesis [8] was “not affected”.
